Here are results for 3 compounds from PMC6844378, “Structure activity relationship studies on Amb639752: toward the identification of a common pharmacophoric structure for DGKα inhibitors” (Journal of Enzyme Inhibition and Medicinal Chemistry, 2019).

One test addresses DGKα (Homo sapiens, UniProt P23743). Put plainly: DGK assay on OST-DGKα enriched MDCK homogenates. The class given is biochemical. More on the design: expressed in transfected cells; host or cells: MDCK cells (vector-infected, doxycycline-induced), crude homogenate. As to conditions: for remaining activity at 100 µM: percentage of residual DGKα activity compared to DMSO control, OST-DGKα overexpressing cell lysates, saturating DAG and ATP, read-out: Residue activity at 100 µM; for IC50: residual OST-DGKα activity at 0.1, 1.0, 10.0 and 100.0 µM. The protocol:
Madin-Darby canine kidney (MDCK) cells stably expressing One Strep Tag DGKα (OST-DGKα) were prepared by infecting MDCK cells with a vector expressing an inducible OST tagged DGKα constructs. MDCK cells infected with empty vector were used as controls. MDCK cells were cultured in MEM (minimal essential medium) with 5% FBS (foetal bovine serum) and 1% antibiotic–antimycotic solution. Routinely, cells were splitted every 3–4 days with trypsin–EDTA 0.25% in standard 100 mm dishes.
Large cultures of MDCK cells for enzyme preparation were done by plating 5 × 10^6 cells in 245 mm^2 dishes. Once they reached nearly 70% confluence, cells were treated with doxycycline (1 µg/mL, two days). […] Cells were collected with a rubber scraper, homogenised by passing them through a 29 G-needle syringe 20 times and stored in aliquots at –80 °C. Presence of OST-DGKα was confirmed by western blotting and enzyme assay, transduced DGKα has an activity >100 folds the endogenous DGK.
Essentionally, the same procedure was followed as reported previously in Velnati et al.[9] In brief, DGK activity was assayed by measuring initial velocities (5 min at 27 °C) in presence of saturating substrate concentrations. Reaction conditions: 0.9 µg/µL 1,2-dioleoyl-sn-glycerol, 5 mM ATP, 0.01 µCi/µL [γ^32P]-ATP, 1 mM sodium orthovanadate, 10 mM MgCl2, 1.2 mM EGTA in 7.5 mM Hepes pH 8[12]. Reaction mixture is assembled mixing enzyme (24.5 µL of homogenate), 100× inhibitor or DMSO (0.5 µL), 5× ATP solution (10 µL of 25 mM ATP, 0.05 µCi/µL [γ^32P]-ATP (Perkin-Elmer, Milan, Italy), 5 mM sodium orthovanadate, 50 mM MgCl2), and 3.3× DAG solution (15 µL of 3 µg/µL 1,2-dioleoyl-sn-glycerol resuspended by sonication in 4 mM EGTA in 25 mM Hepes pH 8). The reaction was stopped after 5 min by adding 200 µL of freshly prepared 1 M HCl and lipid was extracted by adding 200 µL of CH3OH:CHCl3 1:1 solution and vortexing for 1 min. The two phases were separated by centrifugation (12,000 RCF for 2 min). Twenty-five microlitres of the lower organic phase was spotted in small drops on silica TLC plates. TLC was run 10 cm and dried before radioactive signals were detected by GS-250 molecular imager and was quantified by quantity one (Bio-Rad, Hercules, CA) software assuring the absence of saturated spots.
Percentage residual activity was calculated as follows: (OST-DGKα homogenate with inhibitor – vector homogenate)/(OST-DGKα homogenate with DMSO – vector homogenate)×100.
Data for the screen on OST-DGKα homogenates are the mean of duplicates. The compounds showing inhibitory activity in this assay were tested >4 times and the mean ± SEM is reported.
To calculate IC50 values of active inhibitors, the inhibitor activity was measured at least three times at 0.1, 1.0, 10.0, and 100.0 µM concentration. Data were analysed using [inhibitor] vs. normalised response parameters with least square [ordinary] curve fitting method in GraphPad PRISM 8.0 software (GraphPad Software, La Jolla, CA) mentioning 95% confidence interval and IC50 values always greater than 0.0. […] In all the experiments, the data were normalised with the controls.
Each inhibitor was tested in duplicate at least once, and DGKα activity was expressed as percentage of residual DGKα activity compared to DMSO control in the same assay. Assay uses OST-DGKα overexpressing cell lysates in presence of saturating exogenous DAG and ATP. We considered R59022 (commercially available) and the lead compound Amb63975230 as our reference molecules.
To measure the inhibitor potency, we determined the IC50 values for the compounds that resulted active when tested at 100 µM by measuring the residual OST-DGKα activity over a dose range of inhibitor concentrations (0.1 µM, 1.0 µM, 10.0 µM, and 100.0 µM).

The subject of the next test is SAP-deficient T cells. Kind of test: RICD assay in SAP silenced T cells. The class given is cell-based, human. Conditions: 10 µM, 30 min pre-treatment, OKT3 10 ng/mL, 24 h; for rescue of RICD (apoptosis) in SAP-deficient T cells: SAP siRNA. The protocol: PBL were isolated from healthy anonymous human donors by Ficoll-Paque PLUS (GE Healthcare, Chicago, IL) density gradient centrifugation, washed, and resuspended at 2 × 10^6 cell/mL in RPMI-GlutaMAX containing 10% heat inactivated FCS, 2 mM glutamine, and 100 U/mL of penicillin and streptomycin. T cells were activated with 1 µg/mL anti-CD3 (UCHT1) and anti-CD28 (clone CD28.2) antibodies. After three days, activated T cells were washed and cultured in medium additionated of 100 IU/mL rhIL-2 (Peprotech, Rocky Hill, NJ) at 1.2 × 10^6 cells/mL for ≥7 days by changing media for every 2–3 days.
Activated human PBLs were transfected with 200 pmol of siRNA oligonucleotides specific for the target protein (Stealth Select siRNA; Life Technologies, Carlsbad, CA) or a non-specific control oligo (Life Technologies, Carlsbad, CA). Transient transfections were performed using Amaxa nucleofector kits for human T cells (Lonza, Basel, Switzerland) and the Amaxa Nucleofector II or 4D systems (programmes T-20 or EI-115). Cells were cultured in IL-2 (100 IU/mL) for four days to allow target gene knockdown. Knockdown efficiency was periodically evaluated by Western blotting.
To test restimulation induced cell death, activated T cells (10^5 cells/well) were plated in triplicate in 96-well round-bottom plate and treated with anti-CD3 (clone OKT3) (10 ng/mL) in RPMI-GlutaMAX supplemented with 100 IU/mL rhIL-2 for 24 h. In these assays, inhibitors (10 µM) were added 30 min before the restimulation with OKT3. 24 h after treatment, cells were stained with 20 ng/mL propidium iodide and collected for a constant time of 30 s per sample on Attune Nxt Flow Cytometer (Thermo Fisher Scientific, Waltham, MA). Cell death is expressed as % cell loss and calculated as: % cell loss=(1−(number of viable cells in sample/number of viable cells in control)×100)
Results were expressed as mean ± standard error of the mean (SEM). We always compared controls and SAP silenced lymphocytes from the same donors as there is a large individual variability in RICD sensitivity.
To evaluate inhibitor efficacy in physiological context, we modelled XLP-1 by silencing SAP in primary peripheral blood T lymphocytes (PBLs) and restimulating them with anti-CD3 antibody (OKT3 10 ng/mL, 24 h). We pre-treated the cells with the indicated inhibitors for 30 min at a concentration of 10 µM[8].
Figure 9. DGKα inhibitors partially restores apoptosis in SAP deficient lymphocytes. […] After 4 days, the cells were restimulated with CD3 agonist OKT3 (10 ng/mL) in presence of respective inhibitor. Vehicle (DMSO) was used as control. Twenty-four hours later, the % of cell loss was evaluated by PI staining. Data are the mean ± SEM of nine independent experiments performed in triplicate.

Structures are written as SMILES.

Sequence of DGKα (P23743 whole entry): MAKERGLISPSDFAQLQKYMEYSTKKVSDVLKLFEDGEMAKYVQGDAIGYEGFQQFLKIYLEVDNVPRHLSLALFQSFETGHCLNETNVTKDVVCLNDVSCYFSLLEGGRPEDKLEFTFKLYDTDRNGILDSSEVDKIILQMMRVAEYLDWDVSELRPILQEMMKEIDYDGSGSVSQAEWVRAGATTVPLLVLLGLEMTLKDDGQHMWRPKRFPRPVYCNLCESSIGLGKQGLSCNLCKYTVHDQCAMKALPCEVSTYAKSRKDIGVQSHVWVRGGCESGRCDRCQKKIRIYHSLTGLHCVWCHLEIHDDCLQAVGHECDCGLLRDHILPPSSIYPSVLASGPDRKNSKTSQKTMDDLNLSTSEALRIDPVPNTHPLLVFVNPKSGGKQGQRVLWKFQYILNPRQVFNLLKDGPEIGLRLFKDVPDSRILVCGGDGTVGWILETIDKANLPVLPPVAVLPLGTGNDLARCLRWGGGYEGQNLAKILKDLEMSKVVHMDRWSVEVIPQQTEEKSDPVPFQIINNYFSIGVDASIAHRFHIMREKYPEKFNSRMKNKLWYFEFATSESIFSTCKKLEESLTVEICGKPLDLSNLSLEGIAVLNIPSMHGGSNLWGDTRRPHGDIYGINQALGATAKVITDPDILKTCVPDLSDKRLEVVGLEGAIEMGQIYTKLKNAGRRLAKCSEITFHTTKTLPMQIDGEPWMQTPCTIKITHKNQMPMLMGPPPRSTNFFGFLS

As a reminder, the IC50 is the concentration needed to halve the response being measured. Higher therefore signals lower potency. Turning to `Cc1ccc(C(=O)N2CCN(CC(=O)c3c(C)[nH]c4cc(C)ccc34)CC2)cc1` [Compound 20, 1-(2,6-Dimethyl-1H-indol-3-yl)-2-(4-(4-methylbenzoyl)piperazin-1-yl)ethan-1-one], the remaining activity at 100 µM at DGKα (100 µM) amounted to 3%. Moreover, it took 1800 nM to reach half-maximal inhibition against DGKα (IC50). Also, the “rescue of RICD (apoptosis) in SAP-deficient T cells” value in the test with SAP-deficient T cells is given as “restore apoptosis”.

Turning to `Cc1ccc2c(C(=O)CN3CCN(C(=O)c4ccc(Cl)cc4)CC3)c(C)[nH]c2c1` [Compound 11, 2-(4-(4-Chlorobenzoyl)piperazin-1-yl)-1-(2,6-dimethyl-1H-indol-3-yl)ethan-1-one], at DGKα (100 µM), the remaining activity at 100 µM amounted to 6%. On DGKα, the IC50 is 1600 nM. Besides, in the test with SAP-deficient T cells, the “effect on RICD in control siRNA-transfected cells” value is listed as “slightly reducing” and the “rescue of RICD (apoptosis) in SAP-deficient T cells” value was “restore apoptosis”.

The inhibition is the drop in the measured response relative to a control, in per cent. Turning to `Cc1ccc2c(C(=O)CN3CCN(C(=O)c4ccco4)CC3)c(C)[nH]c2c1` [Amb639752], on DGKα (100 µM), 100 µM produced 96% inhibition and the remaining activity at 100 µM was found to be 4%. This compound also returned an IC50 on DGKα of 6900 ± 3000 nM. In addition, the “effect on RICD in control siRNA-transfected cells” value with SAP-deficient T cells is “slightly reducing”.
